The supplement of paper PMC10307832

How the values were obtained:
Test in all cases: relative viability (nuclei count vs DMSO), 5 days (fraction); higher = more cells survive
ABC-1 = test system: ABC-1
Method in brief: (§1)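 After 5 days of treatment, lung cancer cells in 1536-well plates were fixed and stained in a single step (final 0.05% Triton X-100, 1% formaldehyde, 1 ug/ml Hoechst) and their nuclei counted on 4× images. Treatment had been applied by pin tool the day after seeding as one drug alone or as a fixed anchor-drug dose with five library-drug doses (not always all listed) in √10 steps. Relative viability is the nuclei count of treated wells divided by that of vehicle wells, and values are medians of duplicate plates.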

CAL-12T = test system: CAL-12T
Method in brief: as §1

COR-L 105 = test system: COR-L 105
Method in brief: as §1

ChaGo-K-1 = test system: ChaGo-K-1
Method in brief: as §1

EMC-BAC-2 = test system: EMC-BAC-2
Method in brief: as §1

EPLC-272H = test system: EPLC-272H
Method in brief: as §1

HCC-15 = test system: HCC-15
Method in brief: as §1

HCC-78 = test system: HCC-78
Method in brief: as §1

HOP-62 = test system: HOP-62
Method in brief: as §1

LXF-289 = test system: LXF-289
Method in brief: as §1

NCI-H1666 = test system: NCI-H1666
Method in brief: as §1

NCI-H1755 = test system: NCI-H1755
Method in brief: as §1

NCI-H1915 = test system: NCI-H1915
Method in brief: as §1

NCI-H1975 = test system: NCI-H1975
Method in brief: as §1

NCI-H2023 = test system: NCI-H2023
Method in brief: as §1

NCI-H2085 = test system: NCI-H2085
Method in brief: as §1

NCI-H2126 = test system: NCI-H2126
Method in brief: as §1

NCI-H3122 = test system: NCI-H3122
Method in brief: as §1

NCI-H322M = test system: NCI-H322M
Method in brief: as §1

NCI-H358 = test system: NCI-H358
Method in brief: as §1

NCI-H441 = test system: NCI-H441
Method in brief: as §1

UMC-11 = test system: UMC-11
Method in brief: as §1

SMILES: Nc1ccn([C@@H]2O[C@H](CO)[C@@H](O)[C@@H]2O)c(=O)n1 [Cytarabine] + Cc1cc(Nc2cc(N3CCN(C)CC3)nc(Sc3ccc(NC(=O)C4CC4)cc3)n2)n[nH]1 [Tozasertib] (partner 0.1 µM)
- relative viability (ABC-1; first compound 0.005 µM): 0.209
- relative viability (ABC-1; first compound 0.01581 µM): 0.176
- relative viability (ABC-1; first compound 0.05 µM): 0.174
- relative viability (ABC-1; first compound 0.1581 µM): 0.154
- relative viability (ABC-1; first compound 0.5 µM): 0.183
- relative viability (CAL-12T; first compound 0.005 µM): 0.249
- relative viability (CAL-12T; first compound 0.01581 µM): 0.323
- relative viability (CAL-12T; first compound 0.05 µM): 0.27
- relative viability (CAL-12T; first compound 0.1581 µM): 0.303
- relative viability (CAL-12T; first compound 0.5 µM): 0.2
- relative viability (COR-L 105; first compound 0.005 µM): 0.305
- relative viability (COR-L 105; first compound 0.01581 µM): 0.317
- relative viability (COR-L 105; first compound 0.05 µM): 0.306
- relative viability (COR-L 105; first compound 0.1581 µM): 0.319
- relative viability (COR-L 105; first compound 0.5 µM): 0.334
- relative viability (ChaGo-K-1; first compound 0.005 µM): 0.188
- relative viability (ChaGo-K-1; first compound 0.01581 µM): 0.207
- relative viability (ChaGo-K-1; first compound 0.05 µM): 0.208
- relative viability (ChaGo-K-1; first compound 0.1581 µM): 0.16
- relative viability (ChaGo-K-1; first compound 0.5 µM): 0.149
- relative viability (EMC-BAC-2; first compound 0.005 µM): 0.302
- relative viability (EMC-BAC-2; first compound 0.01581 µM): 0.288
- relative viability (EMC-BAC-2; first compound 0.05 µM): 0.242
- relative viability (EMC-BAC-2; first compound 0.1581 µM): 0.233
- relative viability (EMC-BAC-2; first compound 0.5 µM): 0.168
- relative viability (EPLC-272H; first compound 0.005 µM): 0.294
- relative viability (EPLC-272H; first compound 0.01581 µM): 0.199
- relative viability (EPLC-272H; first compound 0.05 µM): 0.289
- relative viability (EPLC-272H; first compound 0.1581 µM): 0.29
- relative viability (EPLC-272H; first compound 0.5 µM): 0.261
- relative viability (HCC-15; first compound 0.005 µM): 0.413
- relative viability (HCC-15; first compound 0.01581 µM): 0.57
- relative viability (HCC-15; first compound 0.05 µM): 0.577
- relative viability (HCC-15; first compound 0.1581 µM): 0.461
- relative viability (HCC-15; first compound 0.5 µM): 0.354
- relative viability (HCC-78; first compound 0.005 µM): 0.518
- relative viability (HCC-78; first compound 0.01581 µM): 0.489
- relative viability (HCC-78; first compound 0.05 µM): 0.389
- relative viability (HCC-78; first compound 0.1581 µM): 0.333
- relative viability (HCC-78; first compound 0.5 µM): 0.253
- relative viability (HOP-62; first compound 0.005 µM): 0.251
- relative viability (HOP-62; first compound 0.01581 µM): 0.259
- relative viability (HOP-62; first compound 0.05 µM): 0.282
- relative viability (HOP-62; first compound 0.5 µM): 0.0966
- relative viability (LXF-289; first compound 0.005 µM): 0.244
- relative viability (LXF-289; first compound 0.01581 µM): 0.182
- relative viability (LXF-289; first compound 0.05 µM): 0.13
- relative viability (LXF-289; first compound 0.1581 µM): 0.0999
- relative viability (LXF-289; first compound 0.5 µM): 0.0753
- relative viability (NCI-H1666; first compound 0.005 µM): 0.559
- relative viability (NCI-H1666; first compound 0.01581 µM): 0.628
- relative viability (NCI-H1666; first compound 0.05 µM): 0.469
- relative viability (NCI-H1666; first compound 0.1581 µM): 0.446
- relative viability (NCI-H1666; first compound 0.5 µM): 0.423
- relative viability (NCI-H1755; first compound 0.005 µM): 0.492
- relative viability (NCI-H1755; first compound 0.01581 µM): 0.452
- relative viability (NCI-H1755; first compound 0.05 µM): 0.421
- relative viability (NCI-H1755; first compound 0.1581 µM): 0.273
- relative viability (NCI-H1755; first compound 0.5 µM): 0.344
- relative viability (NCI-H1915; first compound 0.005 µM): 0.351
- relative viability (NCI-H1915; first compound 0.01581 µM): 0.472
- relative viability (NCI-H1915; first compound 0.05 µM): 0.401
- relative viability (NCI-H1915; first compound 0.1581 µM): 0.319
- relative viability (NCI-H1915; first compound 0.5 µM): 0.32
- relative viability (NCI-H1975; first compound 0.005 µM): 0.681
- relative viability (NCI-H1975; first compound 0.01581 µM): 0.799
- relative viability (NCI-H1975; first compound 0.05 µM): 0.728
- relative viability (NCI-H1975; first compound 0.1581 µM): 0.317
- relative viability (NCI-H1975; first compound 0.5 µM): 0.206
- relative viability (NCI-H2023; first compound 0.005 µM): 0.238
- relative viability (NCI-H2023; first compound 0.01581 µM): 0.223
- relative viability (NCI-H2023; first compound 0.05 µM): 0.176
- relative viability (NCI-H2023; first compound 0.1581 µM): 0.101
- relative viability (NCI-H2023; first compound 0.5 µM): 0.0955
- relative viability (NCI-H2085; first compound 0.005 µM): 0.809
- relative viability (NCI-H2085; first compound 0.01581 µM): 0.806
- relative viability (NCI-H2085; first compound 0.05 µM): 0.844
- relative viability (NCI-H2085; first compound 0.1581 µM): 0.694
- relative viability (NCI-H2085; first compound 0.5 µM): 0.719
- relative viability (NCI-H2126; first compound 0.005 µM): 0.655
- relative viability (NCI-H2126; first compound 0.01581 µM): 0.774
- relative viability (NCI-H2126; first compound 0.05 µM): 0.607
- relative viability (NCI-H2126; first compound 0.1581 µM): 0.53
- relative viability (NCI-H2126; first compound 0.5 µM): 0.348
- relative viability (NCI-H3122; first compound 0.005 µM): 0.389
- relative viability (NCI-H3122; first compound 0.01581 µM): 0.407
- relative viability (NCI-H3122; first compound 0.05 µM): 0.299
- relative viability (NCI-H3122; first compound 0.1581 µM): 0.237
- relative viability (NCI-H3122; first compound 0.5 µM): 0.161
- relative viability (NCI-H322M; first compound 0.005 µM): 0.454
- relative viability (NCI-H322M; first compound 0.01581 µM): 0.416
- relative viability (NCI-H322M; first compound 0.05 µM): 0.432
- relative viability (NCI-H322M; first compound 0.1581 µM): 0.364
- relative viability (NCI-H322M; first compound 0.5 µM): 0.303
- relative viability (NCI-H358; first compound 0.005 µM): 0.102
- relative viability (NCI-H358; first compound 0.01581 µM): 0.0922
- relative viability (NCI-H358; first compound 0.05 µM): 0.1
- relative viability (NCI-H358; first compound 0.1581 µM): 0.097
- relative viability (NCI-H358; first compound 0.5 µM): 0.0847
- relative viability (NCI-H441; first compound 0.005 µM): 0.557
- relative viability (NCI-H441; first compound 0.01581 µM): 0.637
- relative viability (NCI-H441; first compound 0.05 µM): 0.597
- relative viability (NCI-H441; first compound 0.1581 µM): 0.389
- relative viability (NCI-H441; first compound 0.5 µM): 0.323
- relative viability (UMC-11; first compound 0.005 µM): 0.261
- relative viability (UMC-11; first compound 0.01581 µM): 0.219
- relative viability (UMC-11; first compound 0.05 µM): 0.222
- relative viability (UMC-11; first compound 0.1581 µM): 0.231
- relative viability (UMC-11; first compound 0.5 µM): 0.2
